Test results from PubChem BioAssay (NCI).
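1) Cells in 96-well plates. 2) Compound, 48 h, 5 concentrations. 3) Linear interpolation between surrounding doses. 4) Unreached endpoint = highest concentration. GI50 = concentration required for 50% inhibition of growth. Definition used: TGI = concentration required for complete inhibition of growth.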

Columns and labels:
Assay in all cases: inhibition of tumour cell growth, NCI panel, 48 h
[1] = test system: SK-OV-3 ovarian
[2] = test system: K-562 leukemia
[3] = test system: SNB-19 CNS
[4] = test system: MDA-MB-468 breast
[5] = test system: RXF 393 renal
[6] = test system: SF-268 CNS
[7] = test system: COLO 205 colon
[8] = test system: OVCAR-4 ovarian
[9] = test system: SF-539 CNS
[10] = test system: SN12C renal
[11] = test system: SR leukemia
[12] = test system: HT29 colon
[13] = test system: PC-3 prostate
[14] = test system: SK-MEL-2 melanoma
[15] = test system: KM12 colon
[16] = test system: HOP-62 NSCLC
[17] = test system: OVCAR-3 ovarian
[18] = test system: SW-620 colon
[19] = test system: CAKI-1 renal
[20] = test system: DU-145 prostate
[21] = test system: HL-60(TB) leukemia
[22] = test system: BT-549 breast
[23] = test system: A498 renal
[24] = test system: UO-31 renal
[25] = test system: SF-295 CNS
[26] = test system: NCI-H460 lung
[27] = test system: LOX IMVI melanoma
[28] = test system: OVCAR-5 ovarian
[29] = test system: MDA-MB-435
[30] = test system: NCI-H23 lung

Compound `CC1(C)CC[C@]2(C(=O)O)CC[C@]3(C)C(=CCC4[C@@]5(C)C[C@@H](O)[C@@H]6OC(c7ccccc7F)OC[C@@]6(C)C5CC[C@]43C)C2C1` (some centres undefined) has a TGI [1] of 17.4 µM, a GI50 [2] of 2660 nM and a TGI [2] of 84.2 µM. For the same compound, the GI50 [3] was 3.75 µM, the TGI [3] was 15.8 µM and the GI50 [4] was 3.37 µM. It also gave a TGI [4] of 14 µM, a GI50 [5] of 2540 nM and a TGI [5] of 7.92 µM. For the same compound, the GI50 [6] was 5.04 µM, the TGI [6] was 20.7 µM and the GI50 [7] was 2730 nM. It also gave a TGI [7] of 8.52 µM, a GI50 [8] of 5.19 µM and a TGI [8] of 19.4 µM. It also gave a GI50 [9] of 3.65 µM, a TGI [9] of 13 µM and a GI50 [10] of 3.57 µM. It also gave a TGI [10] of 15.7 µM, a GI50 [11] of 3.29 µM and a TGI [11] of 21.9 µM. It also gave a GI50 [12] of 3.6 µM, a TGI [12] of 17.2 µM and a GI50 [13] of 3.21 µM. It also gave a TGI [13] of 18.3 µM, a GI50 [14] of 4.83 µM and a TGI [14] of 20 µM. For the same compound, the GI50 [15] was 3.7 µM, the TGI [15] was 15.1 µM and the GI50 [16] was 3.61 µM. The TGI [16] was 15 µM, the GI50 [17] was 3.23 µM and the TGI [17] was 13.1 µM. It also gave a GI50 [18] of 4.34 µM, a TGI [18] of 16.4 µM and a GI50 [19] of 3.8 µM. For the same compound, the TGI [19] was 14.4 µM, the GI50 [20] was 6.27 µM and the TGI [20] was 19.8 µM. For the same compound, the GI50 [21] was 2670 nM, the TGI [21] was 9.82 µM and the GI50 [22] was 2840 nM. The TGI [22] was 11.3 µM, the GI50 [23] was 7.09 µM and the TGI [23] was 20.2 µM. It also gave a GI50 [24] of 2530 nM, a TGI [24] of 13.5 µM and a GI50 [25] of 2720 nM. It also gave a TGI [25] of 13 µM, a GI50 [26] of 3.67 µM and a TGI [26] of 14.1 µM. For the same compound, the GI50 [27] was 3.49 µM, the TGI [27] was 14.2 µM and the GI50 [28] was 9.04 µM. The TGI [28] was 21.1 µM, the GI50 [29] was 5.58 µM and the TGI [29] was 18.6 µM. It also gave a GI50 [30] of 3.97 µM and a TGI [30] of 15.7 µM.
